Calls of active or inactive are those of the source. The rule behind the calls is not given here.

Assay [1] in a line: Effect on insulin secretion activity per ug of total protein in rat RIN5F cells at 1 uM after 30 mins. Format: functional.
Assay [2] is described as follows: Effect on glucose-dependent insulin secretion activity per ug of total protein in rat RIN5F cells at 0.1 uM after 30 mins. Format: functional.
Assay [3] can be described thus: Effect on insulin secretion activity per ug of total protein in rat RIN5F cells at 0.1 uM after 30 mins. Format: functional.
Assay [4] can be described thus: Effect on glucose-dependent insulin secretion activity per ug of total protein in rat RIN5F cells at 1 uM after 30 mins. Format: functional.
Assay [5] in a line: Effect on glucose-dependent insulin secretion activity per ug of total protein in rat RIN5F cells at 10 uM after 30 mins. Format: functional.
For the next assay, the species on record is Bos taurus. Description: Displacement of [3H]clonidine from I1-imidazoline binding site in bovine adrenal medulla plasma membrane upto 100 uM. The assay is classed as tissue-based. For orientation: Loss of bound radioactivity is the signal in a displacement assay; it reports binding, not function.
Another assay is filed under the species Oryctolagus cuniculus. Description: Displacement of [3H]idazoxan from I2-imidazoline binding site in rabbit kidney membrane upto 100 uM. Format: cell membranes.
The species entered for a further assay is Rattus norvegicus. Put plainly: Displacement of [3H]clonidine from alpha2-AR in cerebral cortex of rat brain upto 100 uM. The assay is classed as tissue-based.
A short description of assay [6]: Displacement of [3H]clonidine from I1-imidazoline binding site in bovine adrenal medulla plasma membrane. Format: tissue-based, Bos taurus.
Assay [7] can be described thus: Displacement of [3H]idazoxan from I2-imidazoline binding site in rabbit kidney membrane. Format: cell membranes, Oryctolagus cuniculus.
Assay [8] in a line: Displacement of [3H]clonidine from alpha-2-adrenoceptor in cerebral cortex of rat brain. The assay is classed as tissue-based.

`CCCCNC(=O)NS(=O)(=O)c1ccc(C)cc1` [TOLBUTAMIDE]: the Activity amounted to 26 pg/µg/h in [1], 19.9 pg/µg/h in [2], 19.6 pg/µg/h in [3] and 27.1 pg/µg/h in assay [4].
For the compound `COC(=O)c1cc2c3cc(C)cnc3n(C)c2c(C2CCCCC2)n1`, the Activity in assay [5] turned out to be 15.9 pg/µg/h; in assay [2] it was 14.8 pg/µg/h; in assay [4], 15.2 pg/µg/h.
In the case of `COC(=O)c1cc2c3cccnc3n(C)c2cn1`, the Activity in assay [5] was found to be 13.9 pg/µg/h; in assay [2], 13 pg/µg/h; in assay [4], 13.1 pg/µg/h.
`Cc1cnc2c(c1)c1cc(C(=O)O)nc(Cc3ccccc3)c1n2C`: the result in the assay listed under Bos taurus, in the assay filed under Oryctolagus cuniculus and in the assay listed under Rattus norvegicus was inactive. For the same compound, the Activity in assay [5] turned out to be 38.3 pg/µg/h; in assay [2], 20 pg/µg/h; in assay [4] it was 28.1 pg/µg/h.
`COC(=O)c1cc2c3cccnc3n(C)c2c(C2CCCCC2)n1`: the Activity in assay [5] was 14.2 pg/µg/h; in [2], 13.4 pg/µg/h; in [4] it was 13.9 pg/µg/h.
For `COC(=O)C1Cc2c(n(C)c3ncc(C)cc23)C(c2ccccc2)N1` (stereo not given), in that order: 15.2 pg/µg/h, 13.5 pg/µg/h and 14.9 pg/µg/h.
For `Cc1cnc2c(c1)c1cc(C(=O)O)nc(C)c1n2C`, in that order: 28.3 pg/µg/h, 18.1 pg/µg/h and 22 pg/µg/h.
For `Cc1cnc2[nH]c3c(C)nc(C(=O)O)cc3c2c1`, in that order: 21.1 pg/µg/h, 16.2 pg/µg/h and 18.5 pg/µg/h.
Take `O=C(O)c1cc2c([nH]c3ncccc32)c(C2CCCCC2)n1`: the Activity came to 20.4 pg/µg/h in assay [5], 15.5 pg/µg/h in [2] and 17.1 pg/µg/h in assay [4].
As for `COC(=O)C1Cc2c(n(C)c3ncccc23)C(C)N1` (stereo not given), the values for the Activity in assay [5], in [2] and in [4] were 11.9 pg/µg/h, 10.9 pg/µg/h and 11.5 pg/µg/h, respectively.
For the compound `COC(=O)C1Cc2c(n(C)c3ncc(C)cc23)C(C)N1` (stereo not given), the Activity in [5] stood at 14 pg/µg/h; in [2], 12.3 pg/µg/h; in assay [4], 13.2 pg/µg/h.
For `COC(=O)c1cc2c3cccnc3n(C)c2c(C)n1`, in that order: 14.1 pg/µg/h, 13.4 pg/µg/h and 13.9 pg/µg/h.
For `Cc1cnc2[nH]c3cnc(C(=O)O)cc3c2c1`, in that order: 19.2 pg/µg/h, 15.1 pg/µg/h and 17.3 pg/µg/h.
For the compound `COC(=O)c1cc2c3cc(C)cnc3n(C)c2c(Cc2ccccc2)n1`, the result in the assay listed under Bos taurus, in the assay listed under Oryctolagus cuniculus and in the assay filed under Rattus norvegicus was inactive. Further, the Activity amounted to 16.9 pg/µg/h in [5], 15.9 pg/µg/h in assay [2] and 16.1 pg/µg/h in assay [4].
On to `COC(=O)C1Cc2c(n(C)c3ncc(C)cc23)C(Cc2ccccc2)N1` (stereo not given), for which the outcome in the assay filed under Bos taurus, in the assay listed under Oryctolagus cuniculus and in the assay listed under Rattus norvegicus was inactive. Also, the results for the Activity in [5], in [2] and in assay [4] were 16.8 pg/µg/h, 15.1 pg/µg/h and 15.9 pg/µg/h, respectively.
As a reminder, the Ki is a dissociation constant, usually derived from enzyme kinetics or from competition with a known ligand. Low readings indicate tighter binding, high ones weaker binding. `Cc1nccc2c1[nH]c1ccccc12` [HARMAN]: the Ki in [6] was 36 nM; in [7], 54 nM; in assay [8] it was more than 12000 nM. In addition, the figures for the Activity in assay [5], in [2] and in assay [4] were 37 pg/µg/h, 20 pg/µg/h and 27 pg/µg/h, respectively.
As for `COC(=O)C1Cc2c(n(C)c3ncc(C)cc23)CN1` (stereo not given), the Activity was found to be 14.1 pg/µg/h in [5], 12.2 pg/µg/h in assay [2] and 13.1 pg/µg/h in assay [4].
For `COC(=O)c1cc2c([nH]c3ncccc32)c(C)n1`, in that order: 12.5 pg/µg/h, 11 pg/µg/h and 12.1 pg/µg/h.
For `COC(=O)c1cc2c([nH]c3ncc(C)cc32)c(-c2ccccc2)n1`, in that order: 14.9 pg/µg/h, 13.9 pg/µg/h and 14.2 pg/µg/h.
For `Cc1cnc2[nH]c3c(-c4ccccc4)nc(C(=O)O)cc3c2c1`, in that order: 21.4 pg/µg/h, 17.1 pg/µg/h and 19.3 pg/µg/h.
For the compound `COC(=O)C1Cc2c(n(C)c3ncc(C)cc23)C(C2CCCCC2)N1` (stereo not given), the figures for the Activity in assay [5], in assay [2] and in assay [4] were 14.2 pg/µg/h, 12.4 pg/µg/h and 13.4 pg/µg/h, respectively.
For `COC(=O)C1Cc2c([nH]c3ncc(C)cc23)CN1` (stereo not given), in that order: 11.5 pg/µg/h, 10.8 pg/µg/h and 11.2 pg/µg/h.
For `COC(=O)c1cc2c3cccnc3n(C)c2c(-c2ccccc2)n1`, in that order: 14.8 pg/µg/h, 13.9 pg/µg/h and 14.1 pg/µg/h.
Take `COC(=O)C1Cc2c(n(C)c3ncccc23)CN1` (stereo not given): the Activity in assay [5] came to 11.5 pg/µg/h; in [2], 10.8 pg/µg/h; in [4] it was 11.2 pg/µg/h.
For `Cn1c2ncccc2c2cc(C(=O)O)nc(-c3ccccc3)c21`, in that order: 21.1 pg/µg/h, 17.2 pg/µg/h and 19.3 pg/µg/h.
As to `COC(=O)c1cc2c(cn1)[nH]c1ncccc12`, the values for the Activity in assay [5], in [2] and in [4] were 12 pg/µg/h, 11 pg/µg/h and 11.9 pg/µg/h, respectively.
In the case of `COC(=O)C1Cc2c([nH]c3ncc(C)cc23)C(C)N1` (stereo not given), the Activity in assay [5] was 11.9 pg/µg/h; in assay [2], 10.9 pg/µg/h; in [4], 11.5 pg/µg/h.
With `COC(=O)c1cc2c3cc(C)cnc3n(C)c2cn1`, the Activity in [5] worked out at 15.6 pg/µg/h; in [2] it was 14.3 pg/µg/h; in [4], 14.9 pg/µg/h.
For `COC(=O)c1cc2c([nH]c3ncc(C)cc32)c(C)n1`, the Activity turned out to be 14.2 pg/µg/h in assay [5], 13.5 pg/µg/h in assay [2] and 13.9 pg/µg/h in assay [4].

(Values after ChEMBL document CHEMBL1149631, “Synthesis of 3,8,9-trisubstituted-1,7,9-triaza-fluorene-6-carboxylic acid derivatives as a new class of insulin secretagogues” (Bioorg Med Chem, 2007).)
